The values below come from patent US20210253575A1, “PYRROLIDINE AMINE COMPOUNDS FOR THE TREATMENT OF AUTOIMMUNE DISEASE” (Hoffmann-La Roche Inc., priority 2018, published 2021).

The assay has as its target T1, human TLR8 (Homo sapiens, UniProt Q9NR97).
T1 sequence (Q9NR97 27-1041): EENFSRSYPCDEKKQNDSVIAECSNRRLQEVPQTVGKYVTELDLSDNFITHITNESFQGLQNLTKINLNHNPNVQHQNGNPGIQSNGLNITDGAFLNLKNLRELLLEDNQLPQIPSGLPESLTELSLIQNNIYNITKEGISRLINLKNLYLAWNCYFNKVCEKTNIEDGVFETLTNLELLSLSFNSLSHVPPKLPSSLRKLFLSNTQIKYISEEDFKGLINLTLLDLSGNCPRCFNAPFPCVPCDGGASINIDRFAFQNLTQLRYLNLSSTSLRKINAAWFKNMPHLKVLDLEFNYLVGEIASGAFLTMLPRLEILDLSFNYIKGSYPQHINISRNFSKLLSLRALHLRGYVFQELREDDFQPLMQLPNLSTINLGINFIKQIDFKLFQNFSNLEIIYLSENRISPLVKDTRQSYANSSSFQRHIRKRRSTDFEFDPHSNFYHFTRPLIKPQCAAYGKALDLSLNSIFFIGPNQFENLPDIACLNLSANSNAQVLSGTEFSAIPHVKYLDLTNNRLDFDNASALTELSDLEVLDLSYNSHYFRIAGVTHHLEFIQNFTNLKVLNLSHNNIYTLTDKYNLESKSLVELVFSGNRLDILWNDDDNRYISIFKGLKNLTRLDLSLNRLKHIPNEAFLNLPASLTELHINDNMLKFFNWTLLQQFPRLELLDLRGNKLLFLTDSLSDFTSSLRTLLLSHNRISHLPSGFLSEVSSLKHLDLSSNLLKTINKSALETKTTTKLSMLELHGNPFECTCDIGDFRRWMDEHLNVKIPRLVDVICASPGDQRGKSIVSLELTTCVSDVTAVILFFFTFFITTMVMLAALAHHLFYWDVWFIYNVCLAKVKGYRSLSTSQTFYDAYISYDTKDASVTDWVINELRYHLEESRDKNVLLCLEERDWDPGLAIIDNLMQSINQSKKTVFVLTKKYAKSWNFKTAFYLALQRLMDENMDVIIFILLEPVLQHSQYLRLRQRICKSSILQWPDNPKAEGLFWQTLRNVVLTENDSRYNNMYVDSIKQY
Nature of the assay: HEK293-Blue-hTLR-8 cells assay (SEAP reporter, R848 stimulation). The assay is classed as cell-based. The conditions noted are these: HEK293-Blue-hTLR8 cells, R848 ligand, 20 hrs incubation. As for the experimental part: The following tests were carried out in order to determine the activity of the compounds of formula (I) in HEK293-Blue-hTLR-7/8/9 cells assay.
HEK293-Blue-hTLR-8 Cells Assay:
A stable HEK293-Blue-hTLR-8 cell line was purchased from InvivoGen (Cat. #: hkb-htlr8, San Diego, Calif., USA). These cells were originally designed for studying the stimulation of human TLR8 by monitoring the activation of NF-κB. A SEAP (secreted embryonic alkaline phosphatase) reporter gene was placed under the control of the IFN-β minimal promoter fused to five NF-κB and AP-1-binding sites. The SEAP was induced by activating NF-κB and AP-1 via stimulating HEK-Blue hTLR8 cells with TLR8 ligands. Therefore the reporter expression was declined by TLR8 antagonist under the stimulation of a ligand, such as R848, for incubation of 20 hrs. The cell culture supernatant SEAP reporter activity was determined using QUANTI-Blue™ kit (Cat. #: rep-qb1, Invivogen, San Diego, Ca, USA) at a wavelength of 640 nm, a detection medium that turns purple or blue in the presence of alkaline phosphatase.
HEK293-Blue-hTLR8 cells were incubated at a density of 250,000˜450,000 cells/mL in a volume of 170 μL in a 96-well plate in Dulbecco's Modified Eagle's medium (DMEM) containing 4.5 g/L glucose, 50 U/mL penicillin, […], […], 2 mM L-glutamine, 10% (v/v) heat-inactivated fetal bovine serum with addition of 20 μL test compound in a serial dilution in the presence of final DMSO at 1% and 10 μL of 60 uM R848 in above DMEM, perform incubation under 37° C. in a CO2 incubator for 20 hrs. Then 20 μL of the supernatant from each well was incubated with 180 μL Quanti-blue substrate solution at 37° C. for 2 hrs and the absorbance was read at 620-655 nm using a spectrophotometer. The signalling pathway that TLR8 activation leads to downstream NF-κB activation has been widely accepted, and therefore similar reporter assay was modified for evaluating TLR8 antagonist.
Usually IC50 stands for the midpoint of a concentration-inhibition curve. A low value points to greater potency in that assay. `C[C@H]1CN(c2ccc(C#N)c3ncccc23)C[C@@H]1CN1CCC2(CCNC2)C1` (stereo partly drawn) [Example 35, 5-[(3S,4R)-3-(2,7-diazaspiro[4.4]nonan-2-ylmethyl)-4-methyl-pyrrolidin-1-yl]quinoline-8-carbonitrile] yielded an IC50 of 245 nM.

`N#Cc1ccc(N2CCC(CN3CCC4(CCNCC4)CC3)C2)c2nccnc12` (stereo not drawn) [Example 37, 8-[3-(3,9-Diazaspiro[5.5]undecan-3-ylmethyl)pyrrolidin-1-yl]quinoxaline-5-carbonitrile] gave an IC50 of 531 nM.

`N#Cc1ccc(N2CC(CNC3CCCNCC3)C3(CC3)C2)c2nccnc12` (stereo not drawn) [Example 39, 8-[7-[(Azepan-4-ylamino)methyl]-5-azaspiro[2.4]heptan-5-yl]quinoxaline-5-carbonitrile] gave an IC50 of 132 nM.

Molecule `C[C@@H]1CN(c2ccc(C(F)(F)F)c3nccnc23)C[C@H]1CNC1CCCNCC1` (stereo partly drawn) [Example 40] yielded an IC50 of 742 nM.

`FC(F)(F)c1ccc(N2CC(CN3C[C@H]4CNC[C@H]4C3)C3(CC3)C2)c2nccnc12` (stereo partly drawn) [Example 41, 5-[7-[[(3aR,6aS)-2,3,3a,4,6,6a-hexahydro-H-pyrrolo[3,4-c]pyrrol-5-yl]methyl]-5-azaspiro[2.4]heptan-5-yl]-8-(trifluoromethyl)quinoxaline] had an IC50 of 357 nM.

As to `N#Cc1ccc(N2CC(CN3CC4(CC(N)C4)C3)C3(CC3)C2)c2nccnc12` (stereo not drawn) [Example 42, 8-[7-[(6-Amino-2-azaspiro[3.3]heptan-2-yl)methyl]-5-azaspiro[2.4]heptan-5-yl]quinoxaline-5-carbonitrile], the IC50 is 161 nM.

Regarding `N#Cc1ccc(N2CC(CN3CCC4(CCNC4)C3)C3(CC3)C2)c2cccnc12` (stereo not drawn) [Example 43, 5-[7-(2,7-Diazaspiro[4.4]nonan-2-ylmethyl)-5-azaspiro[2.4]heptan-5-yl]quinoline-8-carbonitrile], half-maximal inhibition (IC50) required 718 nM.

As to `N#Cc1ccc(N2C[C@H](CN3CCC4(CCCNC4)CC3)[C@@H](C(F)(F)F)C2)c2nccnc12` [Example 45, 8-[(3S,4R)-3-(2,9-diazaspiro[5.5]undecan-9-ylmethyl)-4-(trifluoromethyl)pyrrolidin-1-yl]quinoxaline-5-carbonitrile], the IC50 was 32 nM.

As to `N#Cc1ccc(N2C[C@H](CN3CCC4(CCNCC4)C3)[C@@H](C(F)(F)F)C2)c2nccnc12` [Example 46, 8-[(3S,4R)-3-(2,8-diazaspiro[4.5]decan-2-ylmethyl)-4-(trifluoromethyl)pyrrolidin-1-yl]quinoxaline-5-carbonitrile], half-maximal inhibition (IC50) was put at 67 nM.

Molecule `N#Cc1ccc(N2C[C@H](CN3CC4(CC(N)C4)C3)[C@@H](C(F)(F)F)C2)c2nccnc12` [Example 47, 8-[(3S,4R)-3-[(6-amino-2-azaspiro[3.3]heptan-2-yl)methyl]-4-(trifluoromethyl)pyrrolidin-1-yl]quinoxaline-5-carbonitrile] gave an IC50 of 74 nM.

For the molecule `N#Cc1ccc(N2C[C@H](CN3CC4(CCNCC4)C3)[C@@H](C(F)(F)F)C2)c2nccnc12` [Example 48, 8-[(3S,4R)-3-(2,7-diazaspiro[3.5]nonan-2-ylmethyl)-4-(trifluoromethyl)pyrrolidin-1-yl]quinoxaline-5-carbonitrile], the IC50 amounted to 37 nM.

In turn, `N#Cc1ccc(N2CC(CN3CCC4(CC3)CNCCO4)C3(CC3)C2)c2nccnc12` (stereo not drawn) [Example 49, 8-[7-(1-Oxa-4,9-diazaspiro[5.5]undecan-9-ylmethyl)-5-azaspiro[2.4]heptan-5-yl]quinoxaline-5-carbonitrile] displayed an IC50 of 24 nM.

`N#Cc1ccc(N2CC(CN3CC4CCNCC43)C3(CC3)C2)c2nccnc12` (stereo not drawn) [Example 50, 8-[7-(3,8-Diazabicyclo[4.2.0]octan-8-ylmethyl)-5-azaspiro[2.4]heptan-5-yl]quinoxaline-5-carbonitrile] gave a half-maximal inhibitory concentration (IC50) of 38 nM.

Molecule `N#Cc1ccc(N2C[C@H](CN3CCC(N)CC3)[C@@H](C(F)(F)F)C2)c2nccnc12` [Example 51, 8-[(3S,4R)-3-[(4-amino-1-piperidyl)methyl]-4-(trifluoromethyl)pyrrolidin-1-yl]quinoxaline-5-carbonitrile] displayed a half-maximal inhibitory concentration (IC50) of 57 nM.

The molecule `N#Cc1ccc(N2C[C@H](CN3CCC(N4CCNCC4)CC3)[C@@H](C(F)(F)F)C2)c2cccnc12` [Example 52, 5-[(3S,4R)-3-[(4-piperazin-1-yl-1-piperidyl)methyl]-4-(trifluoromethyl)pyrrolidin-1-yl]quinoline-8-carbonitrile] registered an IC50 of 88 nM.

Take `N#Cc1ccc(N2C[C@H](CN3CC4(CC(N)C4)C3)[C@@H](C(F)(F)F)C2)c2cccnc12` [Example 53, 5-[(3S,4R)-3-[(6-Amino-2-azaspiro[3.3]heptan-2-yl)methyl]-4-(trifluoromethyl)pyrrolidin-1-yl]quinoline-8-carbonitrile]: the IC50 turned out to be 146 nM.

As to `N#Cc1ccc(N2C[C@H](CN3CCC4(CCNC4)CC3)[C@@H](C(F)(F)F)C2)c2cccnc12` [Example 54, 5-[(3S,4R)-3-(2,8-Diazaspiro[4.5]decan-8-ylmethyl)-4-(trifluoromethyl)pyrrolidin-1-yl]quinoline-8-carbonitrile], the IC50 was 44 nM.

For the molecule `N#Cc1ccc(N2C[C@H](CN3CCC4(CCCNC4)CC3)[C@@H](C(F)(F)F)C2)c2cccnc12` [Example 55, 5-[(3S,4R)-3-(2,9-Diazaspiro[5.5]undecan-9-ylmethyl)-4-(trifluoromethyl)pyrrolidin-1-yl]quinoline-8-carbonitrile], the IC50 was determined as 42 nM.

Turning to `N#Cc1ccc(N2C[C@H](CN3CCC4(CCNCC4)C3)[C@@H](C(F)(F)F)C2)c2cccnc12` [Example 56, 5-[(3S,4R)-3-(2,8-Diazaspiro[4.5]decan-2-ylmethyl)-4-(trifluoromethyl)pyrrolidin-1-yl]quinoline-8-carbonitrile], the midpoint of inhibition, the IC50, lay at 62 nM.

As to `N#Cc1ccc(N2C[C@H](CN3CCCC4(CCNCC4)C3)[C@@H](C(F)(F)F)C2)c2cccnc12` [Example 57, 5-[(3S,4R)-3-(2,9-Diazaspiro[5.5]undecan-2-ylmethyl)-4-(trifluoromethyl)pyrrolidin-1-yl]quinoline-8-carbonitrile], 85 nM corresponded to half-maximal inhibition (IC50).

`N#Cc1ccc(N2CC(CN3CCC(N4CCOCC4)CC3)C3(CC3)C2)c2nccnc12` (stereo not drawn) [Example 58, 8-[7-[(4-Morpholino-1-piperidyl)methyl]-5-azaspiro[2.4]heptan-5-yl]quinoxaline-5-carbonitrile] yielded an IC50 of 91 nM.

The molecule `N#Cc1ccc(N2C[C@H](CN3CCNCC3)[C@@H](C(F)(F)F)C2)c2nccnc12` [Example 59, 8-[(3S,4R)-3-(Piperazin-1-ylmethyl)-4-(trifluoromethyl)pyrrolidin-1-yl]quinoxaline-5-carbonitrile] had a half-maximal inhibitory concentration (IC50) of 14 nM.

The molecule `N#Cc1ccc(N2C[C@H](CN3CCC(N4CCCC4)CC3)[C@@H](C(F)(F)F)C2)c2nccnc12` [Example 60, 8-[(3S,4R)-3-[(4-Pyrrolidin-1-yl-1-piperidyl)methyl]-4-(trifluoromethyl)pyrrolidin-1-yl]quinoxaline-5-carbonitrile] returned a half-maximal inhibitory concentration (IC50) of 43 nM.

With `N#Cc1ccc(N2C[C@H](CN3CCC(N4CCCCC4)CC3)[C@@H](C(F)(F)F)C2)c2nccnc12` [Example 61, 8-[(3S,4R)-3-[[4-(1-Piperidyl)-1-piperidyl]methyl]-4-(trifluoromethyl)pyrrolidin-1-yl]quinoxaline-5-carbonitrile], half-maximal inhibition (IC50) required 23 nM.
